Assay results as given in the supplement of paper PMC10307832.

Columns and labels:
Assay in all cases: relative viability (nuclei count vs DMSO), 5 days (fraction); higher = more cells survive
[1] = compound: COc1nc(N)nc2c1ncn2[C@@H]1O[C@H](CO)[C@@H](O)[C@@H]1O [Nelarabine] + CC(=O)Nc1cccc(-n2c(=O)n(C3CC3)c(=O)c3c(Nc4ccc(I)cc4F)n(C)c(=O)c(C)c32)c1 [Trametinib] (partner 0.02 µM)
Procedure, shortened: (§1)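 Lung cancer cell lines were seeded in 1536-well plates and dosed by pin tool the next day, with either a single drug or a fixed anchor-drug dose combined with five library-drug doses (not always all listed) spaced in √10 steps. Five days later, one step fixed the cells and stained their nuclei (final 0.05% Triton X-100, 1% formaldehyde, 1 ug/ml Hoechst), and nuclei were counted on 4× images. Relative viability is the nuclei count in treated wells divided by the count in vehicle wells, and each value is the median of duplicate plates.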

[2] = compound: C=CCn1c(=O)c2cnc(Nc3ccc(N4CCN(C)CC4)cc3)nc2n1-c1cccc(C(C)(C)O)n1 [Adavosertib] + N=C(N)NC(=N)NCCc1ccccc1 [Phenformin] (partner 250 µM)
Procedure, shortened: as §1

[3] = compound: COc1nc(N)nc2c1ncn2[C@@H]1O[C@H](CO)[C@@H](O)[C@@H]1O [Nelarabine] + O=C(CCCCCCC(=O)Nc1ccccc1)NO [Vorinostat] (partner 1 µM)
Procedure, shortened: as §1

[4] = compound: COc1nc(N)nc2c1ncn2[C@@H]1O[C@H](CO)[C@@H](O)[C@@H]1O [Nelarabine] + CS(=O)(=O)N1CCN(Cc2cc3nc(-c4cccc5[nH]ncc45)nc(N4CCOCC4)c3s2)CC1 [Pictilisib] (partner 1 µM)
Procedure, shortened: as §1

| Cell Line | relative viability ([1]; first compound 0.01 µM) | relative viability ([1]; first compound 0.03162 µM) | relative viability ([1]; first compound 0.1 µM) | relative viability ([1]; first compound 0.3162 µM) | relative viability ([1]; first compound 1 µM) | relative viability ([2]; first compound 0.01 µM) | relative viability ([2]; first compound 0.03162 µM) | relative viability ([2]; first compound 0.1 µM) | relative viability ([2]; first compound 0.3162 µM) | relative viability ([3]; first compound 0.01 µM) | relative viability ([3]; first compound 0.03162 µM) | relative viability ([3]; first compound 0.1 µM) | relative viability ([3]; first compound 0.3162 µM) | relative viability ([3]; first compound 1 µM) | relative viability ([4]; first compound 0.01 µM) | relative viability ([4]; first compound 0.03162 µM) | relative viability ([4]; first compound 0.1 µM) | relative viability ([4]; first compound 0.3162 µM) | relative viability ([4]; first compound 1 µM) |
| --- | --- | --- | --- | --- | --- | --- | --- | --- | --- | --- | --- | --- | --- | --- | --- | --- | --- | --- | --- |
| 201T | 0.781 | 0.775 | 0.737 | 0.712 | 0.73 | 0.453 | 0.441 | 0.467 | 0.453 | 1.2 | 1.04 | 0.999 | 1.03 | 0.979 | 0.792 | 0.556 | 0.718 | 0.714 | 0.705 |
| A549 | – | – | – | – | – | 0.218 | 0.229 | 0.14 | 0.173 | – | – | – | – | – | 0.729 | 0.546 | 0.499 | 0.577 | 0.463 |
| A-427 | 0.835 | 0.772 | 0.728 | 0.721 | 0.773 | 0.337 | 0.289 | 0.297 | 0.255 | 0.856 | 0.93 | 0.895 | 0.854 | 0.844 | 0.928 | 0.749 | 0.745 | 0.716 | 0.714 |
| ABC-1 | – | – | – | – | – | 0.228 | 0.237 | 0.208 | 0.222 | 1.24 | 1.51 | 1.22 | 1.07 | 0.929 | 0.901 | 0.828 | 0.584 | 1.01 | 0.756 |
| BEN | 1.17 | 0.91 | 1.01 | 1.05 | 1.31 | 0.277 | 0.261 | 0.299 | 0.25 | 0.662 | 0.575 | 0.592 | 0.609 | 0.618 | 0.67 | 0.596 | 0.605 | 0.607 | 0.641 |
| CAL-12T | 0.351 | 0.314 | 0.404 | 0.352 | 0.347 | 0.576 | 0.545 | 0.573 | 0.336 | 0.987 | 0.78 | 0.764 | 0.938 | 0.997 | 0.393 | 0.642 | 0.365 | 0.494 | 0.423 |
| COR-L23 | 0.779 | 0.558 | 0.516 | 0.612 | 0.777 | 0.433 | 0.465 | 0.442 | 0.267 | 0.471 | 0.416 | 0.511 | 0.427 | 0.456 | 1.13 | 0.635 | 0.738 | 0.934 | 0.864 |
| COR-L 105 | 0.351 | 0.398 | 0.448 | 0.383 | 0.482 | 0.558 | 0.443 | 0.467 | 0.409 | 0.805 | 0.887 | 0.952 | 1.12 | 0.726 | 0.341 | 0.4 | 0.352 | 0.424 | 0.39 |
| Calu-6 | – | – | – | – | – | – | – | – | – | – | – | – | – | – | 1.15 | 0.856 | 0.977 | 0.891 | 0.962 |
| ChaGo-K-1 | 1 | 0.748 | 0.935 | 0.845 | 0.899 | 0.469 | 0.506 | 0.484 | 0.457 | 0.972 | 0.645 | 0.723 | 0.741 | 0.771 | 0.699 | 0.611 | 0.934 | 0.678 | 0.743 |
| EBC-1 | – | – | – | – | – | – | – | – | – | – | – | – | – | – | 0.372 | 0.284 | 0.407 | 0.329 | 0.461 |
| EKVX | 0.402 | 0.306 | 0.587 | 0.282 | 0.472 | 0.249 | 0.238 | 0.227 | 0.234 | 0.81 | 0.667 | 0.585 | 0.817 | 0.788 | 0.547 | 0.373 | 0.359 | 0.508 | 0.474 |
| EMC-BAC-2 | 0.895 | 1.02 | 0.819 | 0.821 | 0.916 | 0.547 | 0.557 | 0.519 | 0.479 | 0.47 | 1.01 | 0.643 | 0.441 | 0.399 | 0.548 | 0.544 | 0.543 | 0.558 | 0.542 |
| EPLC-272H | 0.293 | 0.307 | 0.317 | 0.274 | 0.293 | 0.314 | 0.306 | 0.353 | 0.245 | 0.313 | 0.411 | 0.459 | 0.387 | 0.385 | 0.337 | 0.269 | 0.315 | 0.302 | 0.298 |
| H3255 | 0.713 | 0.706 | 0.619 | 0.651 | 0.806 | 0.351 | 0.369 | 0.363 | 0.336 | 0.904 | 0.786 | 0.777 | 0.961 | 0.8 | 0.534 | 0.494 | 0.456 | 0.394 | 0.477 |
| HARA | 0.412 | 0.703 | 0.676 | 0.754 | 0.718 | 0.513 | 0.476 | 0.548 | 0.361 | 0.658 | 0.543 | 0.532 | 0.581 | 0.544 | 0.457 | 0.346 | 0.336 | 0.452 | 0.354 |
| HCC-15 | 0.431 | 0.427 | 0.307 | 0.42 | 0.386 | 0.474 | 0.471 | 0.494 | 0.504 | 1.1 | 0.905 | 0.829 | 0.887 | 0.973 | 0.893 | 0.669 | 0.76 | 0.871 | 0.832 |
| HCC-44 | 1.14 | 1.05 | 1.01 | 1.03 | 0.983 | 0.255 | 0.237 | 0.192 | 0.181 | 1.11 | 1.02 | 1.05 | 1.01 | 1.07 | 0.708 | 0.829 | 0.569 | 0.597 | 0.529 |
| HCC-78 | 1.19 | 0.74 | – | 0.853 | 0.96 | 0.582 | 0.744 | 0.821 | 0.704 | 0.601 | 0.475 | – | 0.427 | 0.556 | 0.156 | 0.215 | – | 0.261 | 0.231 |
